According to ChEMBL document CHEMBL1201862, “PubChem BioAssay data set” (2004):
One block for each molecule: values may come before it. Activity calls are given as the source filed them.

Tests used:
[1] = biological target: T1, Microphthalmia-associated transcription factor (Homo sapiens, UniProt O75030); assay: TRPM1 promoter luciferase signal decrease, dose response, MITF inhibitor project, cell-based, SK-MEL-5, cherry-picked, set 3 (AID 493073); type: functional
T1 sequence (O75030 whole entry): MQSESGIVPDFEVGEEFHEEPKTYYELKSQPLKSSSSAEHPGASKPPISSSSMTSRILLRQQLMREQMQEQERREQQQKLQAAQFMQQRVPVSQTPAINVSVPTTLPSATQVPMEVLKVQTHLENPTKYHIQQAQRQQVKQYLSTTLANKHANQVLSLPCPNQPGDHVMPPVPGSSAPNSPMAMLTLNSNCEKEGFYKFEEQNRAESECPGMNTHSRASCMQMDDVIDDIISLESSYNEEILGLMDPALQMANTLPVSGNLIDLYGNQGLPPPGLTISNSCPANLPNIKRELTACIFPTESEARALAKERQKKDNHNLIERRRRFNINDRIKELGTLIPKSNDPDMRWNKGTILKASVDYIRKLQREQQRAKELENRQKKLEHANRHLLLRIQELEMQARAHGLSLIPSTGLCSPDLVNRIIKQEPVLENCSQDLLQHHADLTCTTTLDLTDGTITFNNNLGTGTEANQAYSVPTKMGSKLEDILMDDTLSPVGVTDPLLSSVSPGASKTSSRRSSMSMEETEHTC

[2] = biological target: T2, Short transient receptor potential channel 4 (Mus musculus, UniProt Q9QUQ5); assay: mouse TRPC4 channel inhibitors, dose response, cell-based, HEK293 TRPC4/mu-opioid, Fluo-4 calcium (AID 434942); type: functional;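 further: potency of inhibitors blocking the TRPC4 calcium response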
T2 sequence (Q9QUQ5 whole entry): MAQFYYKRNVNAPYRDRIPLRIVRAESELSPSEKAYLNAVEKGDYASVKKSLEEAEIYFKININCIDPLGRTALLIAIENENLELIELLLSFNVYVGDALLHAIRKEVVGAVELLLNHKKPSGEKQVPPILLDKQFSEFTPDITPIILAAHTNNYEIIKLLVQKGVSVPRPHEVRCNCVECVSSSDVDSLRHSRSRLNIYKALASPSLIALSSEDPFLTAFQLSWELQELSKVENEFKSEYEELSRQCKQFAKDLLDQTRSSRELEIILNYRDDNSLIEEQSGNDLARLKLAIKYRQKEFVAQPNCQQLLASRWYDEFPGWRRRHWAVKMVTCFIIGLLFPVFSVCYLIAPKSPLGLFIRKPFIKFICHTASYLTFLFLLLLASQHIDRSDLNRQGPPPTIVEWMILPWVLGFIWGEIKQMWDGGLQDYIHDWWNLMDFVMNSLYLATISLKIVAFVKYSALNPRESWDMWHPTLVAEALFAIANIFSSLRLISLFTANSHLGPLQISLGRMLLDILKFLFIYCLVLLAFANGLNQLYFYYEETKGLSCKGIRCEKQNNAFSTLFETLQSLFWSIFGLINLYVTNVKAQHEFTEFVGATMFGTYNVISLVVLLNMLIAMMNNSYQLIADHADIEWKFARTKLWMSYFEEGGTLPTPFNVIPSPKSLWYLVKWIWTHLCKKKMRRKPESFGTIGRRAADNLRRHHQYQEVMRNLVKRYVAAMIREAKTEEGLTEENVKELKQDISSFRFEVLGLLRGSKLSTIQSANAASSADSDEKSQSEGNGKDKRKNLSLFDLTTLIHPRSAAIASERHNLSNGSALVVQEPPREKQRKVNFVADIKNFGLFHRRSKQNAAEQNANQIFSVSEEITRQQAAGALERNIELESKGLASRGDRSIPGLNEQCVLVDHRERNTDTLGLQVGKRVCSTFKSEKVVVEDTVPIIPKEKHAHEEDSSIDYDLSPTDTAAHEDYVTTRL

[3] = cytotoxicity in HEK-293T cells, dose response, cytotoxicity control for TCR NF-kB inhibitor project, luminescence, T-cell screen hits (AID 489026); type: functional, cell-based;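 further: cells exposed to compound about 14 hours before the viability readout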
[4] = biological target: Induced myeloid leukemia cell differentiation protein Mcl-1 (Homo sapiens, UniProt Q07820); type: functional
[5] = biological target: Cytochrome P450 2D6 (Homo sapiens, UniProt P10635);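 further: CYP2D6 member of a cytochrome P450 panel assay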
[6] = biological target: Genome polyprotein (dengue virus type 2, UniProt P29990); assay: Dengue-2 NS5 methyltransferase inhibitors, primary screen, biochemical, confirmation dose response (AID 588689); type: functional
[7] = test system: HEK293; assay: cells; details: Homo sapiens;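 further: cells exposed to compound for 14 hours overnight before viability readout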
[8] = biological target: T3, Nucleotide-binding oligomerization domain-containing protein 1 (Homo sapiens, UniProt Q9Y239); assay: NOD1 signaling inhibitors, SAR follow-up, revised (AID 2333); type: functional
T3 sequence (Q9Y239 whole entry): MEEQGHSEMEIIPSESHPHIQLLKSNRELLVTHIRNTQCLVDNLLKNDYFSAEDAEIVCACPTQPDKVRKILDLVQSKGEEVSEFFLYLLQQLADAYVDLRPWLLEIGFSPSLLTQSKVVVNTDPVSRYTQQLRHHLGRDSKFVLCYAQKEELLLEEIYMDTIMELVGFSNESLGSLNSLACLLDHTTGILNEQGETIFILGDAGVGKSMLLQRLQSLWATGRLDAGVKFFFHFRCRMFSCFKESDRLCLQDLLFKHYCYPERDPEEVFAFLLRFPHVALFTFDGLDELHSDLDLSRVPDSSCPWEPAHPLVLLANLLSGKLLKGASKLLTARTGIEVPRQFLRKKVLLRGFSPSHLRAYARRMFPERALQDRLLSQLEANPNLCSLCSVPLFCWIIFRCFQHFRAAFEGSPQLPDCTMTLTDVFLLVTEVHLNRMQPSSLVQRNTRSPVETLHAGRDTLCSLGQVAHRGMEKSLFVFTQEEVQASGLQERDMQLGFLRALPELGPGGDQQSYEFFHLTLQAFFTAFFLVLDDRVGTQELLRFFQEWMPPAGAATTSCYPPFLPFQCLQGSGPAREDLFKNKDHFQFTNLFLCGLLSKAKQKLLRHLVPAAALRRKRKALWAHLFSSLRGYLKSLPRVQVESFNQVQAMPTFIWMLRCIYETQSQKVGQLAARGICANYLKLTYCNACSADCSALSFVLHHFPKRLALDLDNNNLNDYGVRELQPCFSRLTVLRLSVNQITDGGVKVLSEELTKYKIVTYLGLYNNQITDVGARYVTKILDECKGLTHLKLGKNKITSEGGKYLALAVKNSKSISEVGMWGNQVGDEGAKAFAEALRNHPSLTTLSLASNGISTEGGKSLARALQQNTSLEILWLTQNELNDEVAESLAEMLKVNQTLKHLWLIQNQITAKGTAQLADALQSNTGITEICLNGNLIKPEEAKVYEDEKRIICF

[9] = biological target: Tumor necrosis factor (Homo sapiens, UniProt P01375); assay: TNFa-triggered NF-kB activation inhibitors, SAR follow-up, cell-based, revised (AID 2337); type: functional
[10] = biological target: DNA dC->dU-editing enzyme APOBEC-3G (Homo sapiens, UniProt Q9HC16); assay: Dose Response confirmation of small molecule APOBEC3G DNA Deaminase Inhibitors via a fluorescence-based single-stranded DNA deaminase assay. [Related pubchem assays (depositor defined):AID493012, AID493028]; type: functional
Sequence of DNA dC->dU-editing enzyme APOBEC-3G (Q9HC16 whole entry): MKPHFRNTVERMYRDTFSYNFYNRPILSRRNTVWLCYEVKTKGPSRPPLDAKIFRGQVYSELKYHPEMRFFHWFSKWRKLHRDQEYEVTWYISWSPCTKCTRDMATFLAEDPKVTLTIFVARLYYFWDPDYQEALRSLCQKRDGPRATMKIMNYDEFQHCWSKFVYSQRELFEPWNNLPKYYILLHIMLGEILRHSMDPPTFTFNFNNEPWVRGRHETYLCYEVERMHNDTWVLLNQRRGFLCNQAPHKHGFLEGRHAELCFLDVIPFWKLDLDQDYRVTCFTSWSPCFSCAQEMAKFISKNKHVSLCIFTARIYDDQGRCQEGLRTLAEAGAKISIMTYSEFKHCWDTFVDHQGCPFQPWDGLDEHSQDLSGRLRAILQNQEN

Sequence of Cytochrome P450 2D6 (P10635 whole entry): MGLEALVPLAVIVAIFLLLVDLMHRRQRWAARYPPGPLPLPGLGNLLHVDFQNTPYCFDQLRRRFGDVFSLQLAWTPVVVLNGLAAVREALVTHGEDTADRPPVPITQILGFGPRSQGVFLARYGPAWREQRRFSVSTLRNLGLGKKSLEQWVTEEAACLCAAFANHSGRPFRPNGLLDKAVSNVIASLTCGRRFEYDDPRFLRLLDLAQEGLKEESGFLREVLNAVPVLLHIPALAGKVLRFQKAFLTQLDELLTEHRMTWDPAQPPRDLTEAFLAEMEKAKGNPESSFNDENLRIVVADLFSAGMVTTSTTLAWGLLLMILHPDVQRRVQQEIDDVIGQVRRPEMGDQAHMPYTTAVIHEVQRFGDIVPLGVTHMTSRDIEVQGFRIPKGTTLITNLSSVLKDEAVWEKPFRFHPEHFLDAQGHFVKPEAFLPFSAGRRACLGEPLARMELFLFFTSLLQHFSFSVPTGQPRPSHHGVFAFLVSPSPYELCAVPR
Sequence of Induced myeloid leukemia cell differentiation protein Mcl-1 (Q07820 whole entry): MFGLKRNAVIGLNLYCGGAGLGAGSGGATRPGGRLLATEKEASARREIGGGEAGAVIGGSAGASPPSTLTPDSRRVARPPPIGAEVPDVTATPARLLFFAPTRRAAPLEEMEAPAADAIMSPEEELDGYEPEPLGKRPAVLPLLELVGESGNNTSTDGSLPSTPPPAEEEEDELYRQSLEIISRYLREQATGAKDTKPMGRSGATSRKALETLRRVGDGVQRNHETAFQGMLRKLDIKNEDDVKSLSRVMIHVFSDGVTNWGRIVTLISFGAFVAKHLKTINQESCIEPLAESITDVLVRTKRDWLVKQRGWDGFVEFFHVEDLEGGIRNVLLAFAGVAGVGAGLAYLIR
Sequence of Genome polyprotein (P29990 2492-3391 limits assumed): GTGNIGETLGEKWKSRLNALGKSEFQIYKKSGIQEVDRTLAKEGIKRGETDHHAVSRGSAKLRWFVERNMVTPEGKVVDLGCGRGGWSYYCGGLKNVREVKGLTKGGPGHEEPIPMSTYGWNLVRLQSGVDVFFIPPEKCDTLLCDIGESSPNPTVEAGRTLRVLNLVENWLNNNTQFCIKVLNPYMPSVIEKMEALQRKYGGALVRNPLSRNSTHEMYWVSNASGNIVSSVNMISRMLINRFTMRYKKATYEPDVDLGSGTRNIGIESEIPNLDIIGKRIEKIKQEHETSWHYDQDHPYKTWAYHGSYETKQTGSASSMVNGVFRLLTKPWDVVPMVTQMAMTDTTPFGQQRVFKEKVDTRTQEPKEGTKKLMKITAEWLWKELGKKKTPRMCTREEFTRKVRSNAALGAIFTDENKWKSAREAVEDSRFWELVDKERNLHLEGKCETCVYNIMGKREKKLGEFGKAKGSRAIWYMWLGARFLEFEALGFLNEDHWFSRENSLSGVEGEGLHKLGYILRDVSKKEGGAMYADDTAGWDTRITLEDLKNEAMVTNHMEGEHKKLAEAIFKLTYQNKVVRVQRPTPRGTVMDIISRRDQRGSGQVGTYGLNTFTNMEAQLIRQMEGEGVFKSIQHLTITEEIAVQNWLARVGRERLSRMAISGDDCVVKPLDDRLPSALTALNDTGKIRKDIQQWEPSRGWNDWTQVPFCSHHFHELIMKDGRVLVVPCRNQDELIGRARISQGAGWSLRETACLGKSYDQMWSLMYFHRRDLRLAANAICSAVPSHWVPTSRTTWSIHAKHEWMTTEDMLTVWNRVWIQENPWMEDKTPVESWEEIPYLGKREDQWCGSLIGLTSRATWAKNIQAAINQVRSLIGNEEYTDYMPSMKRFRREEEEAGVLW
Sequence of Tumor necrosis factor (P01375 whole entry): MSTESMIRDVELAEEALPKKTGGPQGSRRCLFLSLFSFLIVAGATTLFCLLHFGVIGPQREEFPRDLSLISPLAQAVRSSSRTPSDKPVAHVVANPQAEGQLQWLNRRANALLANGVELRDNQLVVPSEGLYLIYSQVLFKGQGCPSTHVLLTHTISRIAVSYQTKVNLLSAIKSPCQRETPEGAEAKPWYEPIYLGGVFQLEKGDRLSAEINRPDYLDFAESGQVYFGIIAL

Compound: COc1ccc(OC)c(Nc2cc(-c3ccccc3)nc(N)n2)c1
EC50 [2]: 4.73 µM (active) | IC50 [3]: > 80 µM (inactive)

Compound: CC(C)Nc1c([N+](=O)[O-])nn(C)[n+]1[O-]
AC50 [1]: 299 µM (active)

Compound: CCCCN=C(S)NNC(=O)c1sccc1C
AC50 [5]: inconclusive

Compound: CCn1nc(C)cc1C(=O)NC1CCCc2c1cnn2-c1ccc(C)c(C)c1 (centres undefined)
IC50 [7]: > 20 µM (inactive) | IC50 [8]: 4.76 µM (active) | IC50 [9]: 4.43 µM (active)

Compound: NCCCCC(=O)O [5-AMINOVALERIC ACID]
AC50 [5]: inconclusive

Compound: C=C(C)C(=O)Nc1cccc(C2=NOC3(C2)C[C@@H](C(N)=O)N(C(=O)[C@H]2CCC(=O)N2)C3)c1 (some centres undefined)
IC50 [10]: 19.3 µM (active)

The remaining lines, values ahead:

AC50 [1]: 9.14 µM (active)
Compound: CCN1CCc2c(sc(NC(=O)c3ccc(S(=O)(=O)N4CCCC4)cc3)c2C(=O)NC)C1

IC50 [4]: 1.26 µM (active) | EC50 [2]: 1.5 µM (active)
Compound: CCCCn1c(NCc2ccc(N(C)C)cc2)nc2ccccc21

IC50 [6]: 25.9 µM (active)
Compound: Cc1ccc(/C=C2\SC(=S)N(NS(=O)(=O)c3ccc(C)cc3)C2=O)cc1

EC50 [2]: 5.96 µM (active)
Compound: O=C(c1cccc(C(F)(F)F)c1)C1CCCN(Cc2cccn2-c2ccccn2)C1 (centres undefined)
